From patent US10759796B2, “CXCR4 inhibitors and uses thereof” (X4 Pharmaceuticals, Inc., priority 2016, dated 2020)

system: not listed separately; assay: in vitro; conditions: human, Caco-2, pH 7.4
Method: Example 28: Caco-2 Permeability Assay
The goal of this assay was to evaluate the intestinal absorption potential of drug candidates using Caco-2 cell lines.
1. Prewarm Prewarm HBSS Buffer in 37° C. water bath
2. Sonicate Take compounds from −20° C., sonicate for a few minutes (no less than 1 minute)
HBSS buffer with 0.3% DMSO and 5 μM LY: add 150 μL DMSO and 50 μL LY (5 mM) into 50 ml HBSS buffer (pH 7.4).
HBSS buffer with 0.1% DMSO and 5 μM LY: add 50 μL DMSO and 50 μL LY (5 mM) into 50 mL HBSS buffer (pH 7.4).
HBSS buffer with 0.3% DMSO: add 150 μL DMSO into 50 ml HBSS buffer (pH 7.4).
HBSS buffer with 0.1% DMSO: add 50 μL DMSO into 50 ml HBSS buffer (pH 7.4).
Receiver Solution Buffer:
Prepare HBSS buffer with 0.4% DMSO: add 200 μL DMSO into 50 ml HBSS buffer (pH 7.4).
Prepare HBSS buffer with 0.4% DMSO and 5 μM LY: add 200 μL DMSO and 50 μL LY (5 mM) into 50 ml HBSS buffer (pH 7.4).
4. Measure TEER Take cell culture plate out of incubator, wash the cell monolayers with HBSS buffer, and then measure TEER values at Rm temperature. 5. Centrifuge Centrifuge the compound solution (from step 3) at 4000 rpm for 5 min before loading to donor chambers. 6. Dosing Add solution based on the volumes listed in the following table (make sure to take extra 100 μL of donor sample for TO as Backup).
7. Apical LYT0 Samples To determine LY concentration in the apical chember, take 100 μL sample from apical chambers into an opaque plate for LYT0. 8. Prewarm Prewarm apical and basolateral plates at 37° C. for about 5 min, then begin transport by placing the apical plate onto basolateral plate. 9. Incubation Keep the plates in incubator at 37° C. for 90 min. 10. Standard Curve Preparation
For 300 μM compound solution, add 6 μL of compound stock solution into 192 μL of MeOH/H2O (1:1).
Prepare Working Solution in MeOH/H2O (1:1)
3 μL (20×)+57 μL of 0.4% DMSO HBSS+60 μL ACN with IS (Osalmid or Imipramine) - - - 120 μL (1×)
11. Transport Termination Separate the apical plate from the basolateral plate after 90-min incubation.
12. Measure LY Take 100 μL samples from basolateral plate to an opaque plate as LYT90.
13. Measure LY concentrations for LYT0 and LYT90 by Fluorometer (at excitation of 485 nm/emission of 535 nm).
Study details: Test concentration 10 μM
Test systems: Caco-2/HBSS solution
Incubation conditions: 0, 90 min at 37° C.
Sample size: Duplicates (n=2)
Bioanalytical method: LC-MS/MS
For Millicell-24 Cell Culture Plates: surface area of the membrane=0.7 cm^2, VA=0.8 mL (A-to-B) or 0.4 mL (B-to-A)
1. Papp values were calculated based on calculated concentrations.
The compound numbers correspond to the compound numbers in Table 1.

Row | SMILES | Papp A→B at 90 min, 10 μM | Papp B→A at 90 min, 10 μM | efflux ratio at 90 min, 10 μM
1 | Cc1cccnc1[C@@H]1CCC[C@H](c2cn3c(N4CCN(C)CC4)cccc3n2)N1C(C)C [Compound I-126] | 0.1 to 10 ×10⁻⁶ cm/s | 10 to 30 ×10⁻⁶ cm/s | 10 to 30
2 | CCN1CCN(c2cccc3nc([C@H]4CCC[C@@H](c5ncccc5C)N4C)c(CO)n23)CC1 [Compound I-61] | 0.1 to 10 ×10⁻⁶ cm/s | 10 to 30 ×10⁻⁶ cm/s | 0.1 to 10
3 | CN1CCN(c2cccc3nc([C@H]4CCC[C@@H](c5ncccc5Cl)N4C)cn23)CC1 [Compound I-82] | 0.1 to 10 ×10⁻⁶ cm/s | 10 to 30 ×10⁻⁶ cm/s | 0.1 to 10
4 | CCN1CCN(c2cccc3nc([C@H]4CCC[C@@H](c5ncccc5Cl)N4C)c(Cl)n23)CC1 [Compound I-125] | 0.1 to 10 ×10⁻⁶ cm/s | 0.1 to 10 ×10⁻⁶ cm/s | 0.1 to 10
5 | CCN1CCN(c2cccc3nc([C@H]4CCC[C@@H](c5ncccc5C)N4C)c(Cl)n23)CC1 [Compound I-88] | 0.1 to 10 ×10⁻⁶ cm/s | 0.1 to 10 ×10⁻⁶ cm/s | 0.1 to 10
6 | CN1CCN(c2cccc3nc([C@H]4CCC[C@@H](c5ncccc5C5CC5)N4)cn23)CC1 [Compound I-179] | 0.1 to 10 ×10⁻⁶ cm/s | 10 to 30 ×10⁻⁶ cm/s | 0.1 to 10
7 | CN1CCN(c2cccc3nc([C@H]4CCC[C@@H](c5ncccc5C5CC5)N4)c(Cl)n23)CC1 [Compound I-180] | 10 to 30 ×10⁻⁶ cm/s | 10 to 30 ×10⁻⁶ cm/s | 0.1 to 10
8 | Cc1cccnc1[C@@H]1CCC[C@H](c2cn3c(N4CC5CCC(C4)N5C)cccc3n2)N1C [Compound I-68] | 0.1 to 10 ×10⁻⁶ cm/s | 10 to 30 ×10⁻⁶ cm/s | 10 to 30
9 | Cc1cccnc1[C@H]1CCC[C@@H](c2nc3cccc(N4CCN(C)CC4)n3c2F)N1C (stereo in doubt) [Compound I-34] | 10 to 30 ×10⁻⁶ cm/s | 0.1 to 10 ×10⁻⁶ cm/s | 0.1 to 10
10 | CC(C)N1CCN(c2cccc3nc([C@H]4CCC[C@@H](c5ncccc5Cl)N4C)cn23)CC1 [Compound I-150] | 0.1 to 10 ×10⁻⁶ cm/s | 10 to 30 ×10⁻⁶ cm/s | 0.1 to 10
11 | Cc1cccnc1[C@@H]1CCC[C@H](c2nc3cccc(N4CCN(C5CC5)CC4)n3c2CO)N1C [Compound I-112] | 10 to 30 ×10⁻⁶ cm/s | 10 to 30 ×10⁻⁶ cm/s | 0.1 to 10
12 | Cc1cccnc1[C@@H]1CCC[C@H](c2cn3c(N4CCN(C)C(=O)C4)cccc3n2)N1 [Compound I-210] | 0.1 to 10 ×10⁻⁶ cm/s | 10 to 30 ×10⁻⁶ cm/s | > 30

biological target: CXCR-4 transfected U87 cell line (U87.CXCR4) (Homo sapiens (Human), UniProt P61073); assay: Intracellular CXCL-12-induced calcium mobilization assay (FLIPR); assay type: cell-based; conditions: U87.CXCR4 cells, CXCL-12 25-50 ng/mL; read-out: IC50 CXCL-12 Ca2+ flux U87.CXCR4+
Method: Example 28: REGA Screening Assay
Intracellular CXCL-12-Induced Calcium Mobilization Assay
Intracellular calcium mobilization induced by chemokines or chemokine-derived peptides were evaluated using a calcium responsive fluorescent probe and a FLIPR system. The CXCR-4 transfected U87 cell line (U87.CXCR4) cells were seeded in gelatine-coated black-wall 96-well plates at 20,000 cells per well and incubated for 12 hours. Cells were then loaded with the fluorescent calcium probe Fluo-2 acetoxymethyl at 4 μM final concentration in assay buffer (Hanks' balanced salt solution with 20 mM HEPES buffer and 0.2% bovine serum albumin, pH 7.4) for 45 min at 37° C. The intracellular calcium mobilization induced by the CXCL-12 (25-50 ng/mL) was then measured at 37° C. by monitoring the fluorescence as a function of time in all the wells simultaneously using a fluorometric imaging plate reader (FLIPR Tetra, Molecular Devices).

CXCR-4 transfected U87 cell line (U87.CXCR4), sequence (P61073 whole entry): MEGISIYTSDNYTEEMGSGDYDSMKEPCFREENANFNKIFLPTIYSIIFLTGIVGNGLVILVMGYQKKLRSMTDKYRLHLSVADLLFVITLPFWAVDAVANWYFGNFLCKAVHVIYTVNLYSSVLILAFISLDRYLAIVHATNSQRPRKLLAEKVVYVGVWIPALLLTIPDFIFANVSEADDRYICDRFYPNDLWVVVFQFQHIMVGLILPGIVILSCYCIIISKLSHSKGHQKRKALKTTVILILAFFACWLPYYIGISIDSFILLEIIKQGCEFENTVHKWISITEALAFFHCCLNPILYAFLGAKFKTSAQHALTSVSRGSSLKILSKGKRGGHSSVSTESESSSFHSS

Row | SMILES | IC50
13 | Cc1cccnc1[C@@H]1CCC[C@H](c2cn3c(N4CCN(C)CC4)cccc3n2)N1C(C)C [Compound I-126] | 0.01 to 100 nM
14 | CCN1CCN(c2cccc3nc([C@H]4CCC[C@@H](c5ncccc5C)N4C)c(CO)n23)CC1 [Compound I-61] | 0.01 to 100 nM
15 | CN1CCN(c2cccc3nc([C@H]4CCC[C@@H](c5ncccc5Cl)N4C)cn23)CC1 [Compound I-82] | 0.01 to 100 nM
16 | CCN1CCN(c2cccc3nc([C@H]4CCC[C@@H](c5ncccc5Cl)N4C)c(Cl)n23)CC1 [Compound I-125] | 100 to 1000 nM
17 | CCN1CCN(c2cccc3nc([C@H]4CCC[C@@H](c5ncccc5C)N4C)c(Cl)n23)CC1 [Compound I-88] | 0.01 to 100 nM
18 | CN1CCN(c2cccc3nc([C@H]4CCC[C@@H](c5ncccc5C5CC5)N4)cn23)CC1 [Compound I-179] | 0.01 to 100 nM
19 | CN1CCN(c2cccc3nc([C@H]4CCC[C@@H](c5ncccc5C5CC5)N4)c(Cl)n23)CC1 [Compound I-180] | 0.01 to 100 nM
20 | Cc1cccnc1[C@@H]1CCC[C@H](c2cn3c(N4CC5CCC(C4)N5C)cccc3n2)N1C [Compound I-68] | 0.01 to 100 nM
21 | Cc1cccnc1[C@H]1CCC[C@@H](c2nc3cccc(N4CCN(C)CC4)n3c2F)N1C (stereo in doubt) [Compound I-34] | 0.01 to 100 nM
22 | CC(C)N1CCN(c2cccc3nc([C@H]4CCC[C@@H](c5ncccc5Cl)N4C)cn23)CC1 [Compound I-150] | ≥ 1000 nM
23 | Cc1cccnc1[C@@H]1CCC[C@H](c2nc3cccc(N4CCN(C5CC5)CC4)n3c2CO)N1C [Compound I-112] | 100 to 1000 nM
24 | Cc1cccnc1[C@@H]1CCC[C@H](c2cn3c(N4CCN(C)C(=O)C4)cccc3n2)N1 [Compound I-210] | ≥ 1000 nM

biological target: Jurkat cells expressing CXCR4 (Homo sapiens (Human), UniProt P61073); assay: Chemokine (CXCL12-AF647) binding inhibition assay; conditions: CXCL12-AF647 25 ng/mL, read-out: IC50 CXCL-12 binding Jurkat
Method: Chemokine (CXCL12-AF647) Binding Inhibition Assay
Jurkat cells expressing CXCR4 were washed once with assay buffer (Hanks' balanced salt solution with 20 mM HEPES buffer and 0.2% bovine serum albumin, pH 7.4) and then incubated for 15 min at room temperature with the test compounds diluted in assay buffer at dose-dependent concentrations. Subsequently, CXCL12-AF647 (25 ng/mL) was added to the compound-incubated cells. The cells were incubated for 30 min at room temperature. Thereafter, the cells were washed twice in assay buffer, fixed in 1% paraformaldehyde in PBS, and analyzed on the FL4 channel of a FACSCalibur flow cytometer equipped with a 635-nm red diode laser (Becton Dickinson, San Jose, Calif., USA).
The percentages of inhibition of CXCL12-AF647 binding were calculated according to the formula: [1−((MFI−MFINC)/(MFIPC−MFINC))]×100 where MFI is the mean fluorescence intensity of the cells incubated with CXCL12-AF647 in the presence of the inhibitor, MFINC is the mean fluorescence intensity measured in the negative control (i.e., autofluorescence of unlabeled cells), and MFIPC is the mean fluorescence intensity of the positive control (i.e., cells exposed to CXCL12-AF647 alone).

Jurkat cells expressing CXCR4, sequence (P61073 whole entry): as above

Row | SMILES | IC50
25 | Cc1cccnc1[C@@H]1CCC[C@H](c2cn3c(N4CCN(C)CC4)cccc3n2)N1C(C)C [Compound I-126] | 0.01 to 100 nM
26 | CCN1CCN(c2cccc3nc([C@H]4CCC[C@@H](c5ncccc5C)N4C)c(CO)n23)CC1 [Compound I-61] | 0.01 to 100 nM
27 | CN1CCN(c2cccc3nc([C@H]4CCC[C@@H](c5ncccc5Cl)N4C)cn23)CC1 [Compound I-82] | 0.01 to 100 nM
28 | CCN1CCN(c2cccc3nc([C@H]4CCC[C@@H](c5ncccc5Cl)N4C)c(Cl)n23)CC1 [Compound I-125] | 0.01 to 100 nM
29 | CCN1CCN(c2cccc3nc([C@H]4CCC[C@@H](c5ncccc5C)N4C)c(Cl)n23)CC1 [Compound I-88] | 0.01 to 100 nM
30 | CN1CCN(c2cccc3nc([C@H]4CCC[C@@H](c5ncccc5C5CC5)N4)cn23)CC1 [Compound I-179] | 0.01 to 100 nM
31 | CN1CCN(c2cccc3nc([C@H]4CCC[C@@H](c5ncccc5C5CC5)N4)c(Cl)n23)CC1 [Compound I-180] | 0.01 to 100 nM
32 | Cc1cccnc1[C@@H]1CCC[C@H](c2cn3c(N4CC5CCC(C4)N5C)cccc3n2)N1C [Compound I-68] | 0.01 to 100 nM
33 | Cc1cccnc1[C@H]1CCC[C@@H](c2nc3cccc(N4CCN(C)CC4)n3c2F)N1C (stereo in doubt) [Compound I-34] | 0.01 to 100 nM
34 | CC(C)N1CCN(c2cccc3nc([C@H]4CCC[C@@H](c5ncccc5Cl)N4C)cn23)CC1 [Compound I-150] | 0.01 to 100 nM
35 | Cc1cccnc1[C@@H]1CCC[C@H](c2nc3cccc(N4CCN(C5CC5)CC4)n3c2CO)N1C [Compound I-112] | 0.01 to 100 nM
36 | Cc1cccnc1[C@@H]1CCC[C@H](c2cn3c(N4CCN(C)C(=O)C4)cccc3n2)N1 [Compound I-210] | ≥ 1000 nM
